Measured values taken from ChEMBL document CHEMBL1201862, “PubChem BioAssay data set” (2004).
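These data come from cells grown in 96-well plates and exposed to compound for 48 hours at five concentrations. The concentration for 50% growth inhibition is given as GI50.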 Active and inactive are the calls of the source. Cut-off read from the data, not from the text of the source: active = GI50 up to about 1.1 µM and inactive = higher.

How the values were obtained:
Assay in all cases: inhibition of tumour cell growth, NCI panel, 48 h
DMS-273 = tested on: DMS-273
COLO 205 = tested on: COLO 205
LXFL 529 = tested on: LXFL 529
RXF 631 = tested on: RXF 631
SNB-75 = tested on: SNB-75
CCRF-CEM = tested on: CCRF-CEM
NCI-H226 = tested on: NCI-H226
SNB-19 = tested on: SNB-19
SNB-78 = tested on: SNB-78
U-251 = tested on: U-251
HCC 2998 = tested on: HCC 2998
HT-29 = tested on: HT-29
DLD-1 = tested on: DLD-1
UO-31 = tested on: UO-31
MOLT-4 = tested on: MOLT-4
HL-60 = tested on: HL-60
KM12 = tested on: KM12
KM-20L2 = tested on: KM-20L2
HCT-116 = tested on: HCT-116
SK-MEL-5 = tested on: SK-MEL-5
K562 = tested on: K562
SF-539 = tested on: SF-539
M14 = tested on: M14
ACHN = tested on: ACHN
Malme-3M = tested on: Malme-3M
CAKI-1 = tested on: CAKI-1
HOP-18 = tested on: HOP-18
EKVX = tested on: EKVX
A549 = tested on: A549
UACC-62 = tested on: UACC-62
HCT-15 = tested on: HCT-15
SF-268 = tested on: SF-268
OVCAR-8 = tested on: OVCAR-8
SW-620 = tested on: SW-620
SK-OV-3 = tested on: SK-OV-3
NCI-H460 = tested on: NCI-H460
OVCAR-4 = tested on: OVCAR-4
RPMI-8226 = tested on: RPMI-8226
IGROV-1 = tested on: IGROV-1
OVCAR-3 = tested on: OVCAR-3
HOP-62 = tested on: HOP-62
SK-MEL-28 = tested on: SK-MEL-28
SF-295 = tested on: SF-295
SN12C = tested on: SN12C
A498 = tested on: A498
786-0 = tested on: 786-0
M19-MEL = tested on: M19-MEL
NCI-H522 = tested on: NCI-H522
UACC-257 = tested on: UACC-257
SK-MEL-2 = tested on: SK-MEL-2
RXF 393 = tested on: RXF 393
DMS-114 = tested on: DMS-114
LOX IMVI = tested on: LOX IMVI
NCI-H23 = tested on: NCI-H23
HOP-92 = tested on: HOP-92
XF498 = tested on: XF498
TK-10 = tested on: TK-10
OVCAR-5 = tested on: OVCAR-5
SR = tested on: SR

For CC(C)CCC[C@@H](C)C1CCC2[C@@H]3CC=C4C[C@@H](C(=O)NCC[N+](C)(C)CCCS(=O)(=O)[O-])CC[C@]4(C)C3CC[C@@]21C (some centres not stated), the GI50 (DMS-273) was 17 µM (inactive), the GI50 (COLO 205) was 17.5 µM (inactive) and the GI50 (LXFL 529) was 18.8 µM (inactive). The GI50 (RXF 631) was 18.4 µM (inactive), the GI50 (SNB-75) was 20.2 µM (inactive) and the GI50 (CCRF-CEM) was 16.2 µM (inactive). The GI50 (NCI-H226) was 21.2 µM (inactive), the GI50 (SNB-19) was 21.8 µM (inactive) and the GI50 (SNB-78) was 18.8 µM (inactive). The GI50 (U-251) was 17.3 µM (inactive), the GI50 (HCC 2998) was 19.8 µM (inactive) and the GI50 (HT-29) was 18 µM (inactive). The GI50 (DLD-1) was 22.4 µM (inactive), the GI50 (UO-31) was 19.8 µM (inactive) and the GI50 (MOLT-4) was 18.2 µM (inactive). For the same molecule, the GI50 (HL-60) was 13.4 µM (inactive), the GI50 (KM12) was 17.4 µM (inactive) and the GI50 (KM-20L2) was 16.4 µM (inactive). For the same molecule, the GI50 (HCT-116) was 16.8 µM (inactive), the GI50 (SK-MEL-5) was 19.9 µM (inactive) and the GI50 (K562) was 14.2 µM (inactive). The GI50 (SF-539) was 21.3 µM (inactive), the GI50 (M14) was 17.2 µM (inactive) and the GI50 (ACHN) was 18.5 µM (inactive). The GI50 (Malme-3M) was 18.9 µM (inactive), the GI50 (CAKI-1) was 14.2 µM (inactive) and the GI50 (HOP-18) was 17.7 µM (inactive). The GI50 (EKVX) was 16.9 µM (inactive), the GI50 (A549) was 17.3 µM (inactive) and the GI50 (UACC-62) was 20.1 µM (inactive). The GI50 (HCT-15) was 16.3 µM, the GI50 (SF-268) was 21.1 µM (inactive) and the GI50 (OVCAR-8) was 18.8 µM (inactive). For the same molecule, the GI50 (SW-620) was 16.6 µM (inactive), the GI50 (SK-OV-3) was 16.8 µM (inactive) and the GI50 (NCI-H460) was 15.7 µM (inactive). For the same molecule, the GI50 (OVCAR-4) was 20.3 µM (inactive), the GI50 (RPMI-8226) was 20.4 µM (inactive) and the GI50 (IGROV-1) was 17.3 µM (inactive). The GI50 (OVCAR-3) was 16.4 µM (inactive), the GI50 (HOP-62) was 24 µM (inactive) and the GI50 (SK-MEL-28) was 19.8 µM (inactive). For the same molecule, the GI50 (SF-295) was 20 µM (inactive), the GI50 (SN12C) was 17.9 µM (inactive) and the GI50 (A498) was > 10 µM (inactive). The GI50 (786-0) was 17.2 µM (inactive), the GI50 (M19-MEL) was 17.1 µM (inactive) and the GI50 (NCI-H522) was 11.5 µM (inactive). The GI50 (UACC-257) was 20 µM (inactive), the GI50 (SK-MEL-2) was 18.2 µM (inactive) and the GI50 (RXF 393) was 20.9 µM (inactive). For the same molecule, the GI50 (DMS-114) was 19.9 µM (inactive) and the GI50 (LOX IMVI) was 11.7 µM (inactive).
CC1CC2C3CCC4=CC(=O)C=CC4(C)C3(F)C(O)CC2(C)C1(O)C(=O)CO.Cc1nnc(NS(=O)(=O)c2ccc(/N=N/c3cc(/N=N/c4ccc(S(=O)(=O)Nc5nnc(C)s5)cc4)c4c(NC(=O)C(Cl)Cl)cccc4c3OC(=O)C(Cl)Cl)cc2)s1 was tested, and the GI50 (DMS-273) was 11.7 µM (inactive), the GI50 (COLO 205) was 12.1 µM (inactive) and the GI50 (LXFL 529) was 31.9 µM (inactive). The GI50 (RXF 631) was 34.6 µM (inactive), the GI50 (SNB-75) was 37.3 µM (inactive) and the GI50 (NCI-H23) was 12.1 µM (inactive). The GI50 (CCRF-CEM) was 1.08 µM (active), the GI50 (SNB-19) was 48.5 µM (inactive) and the GI50 (SNB-78) was > 100 µM (inactive). The GI50 (U-251) was 37.1 µM (inactive), the GI50 (HCC 2998) was 21.3 µM (inactive) and the GI50 (HT-29) was 8.85 µM (inactive). For the same molecule, the GI50 (DLD-1) was 16.1 µM (inactive), the GI50 (UO-31) was 46.7 µM (inactive) and the GI50 (MOLT-4) was 5.53 µM (inactive). The GI50 (HL-60) was 9.95 µM (inactive), the GI50 (KM12) was 23.6 µM (inactive) and the GI50 (HOP-92) was 51.6 µM (inactive). The GI50 (KM-20L2) was 31.3 µM (inactive), the GI50 (HCT-116) was 15 µM (inactive) and the GI50 (SK-MEL-5) was 22.4 µM (inactive). The GI50 (K562) was 22.9 µM (inactive), the GI50 (SF-539) was 18.9 µM (inactive) and the GI50 (M14) was 28.4 µM (inactive). For the same molecule, the GI50 (Malme-3M) was 26.5 µM (inactive), the GI50 (CAKI-1) was 81.5 µM (inactive) and the GI50 (EKVX) was 34.4 µM (inactive). For the same molecule, the GI50 (A549) was 11.6 µM (inactive), the GI50 (XF498) was 25.8 µM (inactive) and the GI50 (UACC-62) was 33 µM (inactive). For the same molecule, the GI50 (HCT-15) was 35.5 µM, the GI50 (SF-268) was 24 µM (inactive) and the GI50 (OVCAR-8) was 11.6 µM (inactive). The GI50 (SW-620) was 22.6 µM (inactive), the GI50 (NCI-H460) was 21.5 µM (inactive) and the GI50 (TK-10) was 43.3 µM (inactive). For the same molecule, the GI50 (OVCAR-5) was 27.9 µM (inactive), the GI50 (OVCAR-4) was 22.6 µM (inactive) and the GI50 (RPMI-8226) was < 0.01 µM (active). The GI50 (IGROV-1) was 24.5 µM (inactive), the GI50 (OVCAR-3) was 19.2 µM (inactive) and the GI50 (HOP-62) was 88.5 µM (inactive). For the same molecule, the GI50 (SK-MEL-28) was 20.8 µM (inactive), the GI50 (SF-295) was 42.3 µM (inactive) and the GI50 (SN12C) was 3.3 µM (inactive). The GI50 (A498) was 30.1 µM (inactive), the GI50 (786-0) was 25.6 µM (inactive) and the GI50 (M19-MEL) was 18.5 µM (inactive). For the same molecule, the GI50 (NCI-H522) was 21.6 µM (inactive), the GI50 (UACC-257) was 38.5 µM (inactive) and the GI50 (SK-MEL-2) was 21.2 µM (inactive). For the same molecule, the GI50 (RXF 393) was 21.2 µM (inactive), the GI50 (DMS-114) was 18.7 µM (inactive) and the GI50 (LOX IMVI) was 33.3 µM (inactive).
CSC(=O)C[C@@]12O[C@@H]([C@@H](C)C3CCC4[C@@H]5C(O)CC6=CC(=O)C=C[C@]6(C)C5CC[C@@]43C)C[C@](C)(O1)C(C)(C)O2 (some centres not stated) was tested, and the GI50 (DMS-273) was 15.9 µM (inactive), the GI50 (LXFL 529) was 13.2 µM (inactive) and the GI50 (RXF 631) was 19.8 µM (inactive). For the same molecule, the GI50 (NCI-H23) was > 10 µM (inactive), the GI50 (CCRF-CEM) was 3.86 µM (inactive) and the GI50 (NCI-H226) was 22.3 µM (inactive). The GI50 (SNB-19) was 17.5 µM (inactive), the GI50 (SNB-78) was 15.5 µM (inactive) and the GI50 (U-251) was 12.5 µM (inactive). For the same molecule, the GI50 (HCC 2998) was 26.2 µM (inactive), the GI50 (HT-29) was 14.5 µM (inactive) and the GI50 (UO-31) was 12.3 µM (inactive). For the same molecule, the GI50 (HL-60) was 7.85 µM (inactive), the GI50 (KM12) was 16 µM (inactive) and the GI50 (HOP-92) was 9.86 µM (inactive). The GI50 (HCT-116) was 12.8 µM (inactive), the GI50 (K562) was 4.3 µM (inactive) and the GI50 (SR) was 9.95 µM (inactive). For the same molecule, the GI50 (SF-539) was 16.3 µM (inactive), the GI50 (M14) was 16.3 µM (inactive) and the GI50 (Malme-3M) was 23.2 µM (inactive). The GI50 (CAKI-1) was 18.6 µM (inactive), the GI50 (A549) was 15.5 µM (inactive) and the GI50 (XF498) was 14.7 µM (inactive). For the same molecule, the GI50 (UACC-62) was 10.3 µM (inactive), the GI50 (HCT-15) was 17.3 µM and the GI50 (SF-268) was 16.4 µM (inactive). For the same molecule, the GI50 (OVCAR-8) was 17.8 µM (inactive), the GI50 (SW-620) was 17.3 µM (inactive) and the GI50 (SK-OV-3) was 16.6 µM (inactive). For the same molecule, the GI50 (NCI-H460) was 19.1 µM (inactive), the GI50 (TK-10) was 17.8 µM (inactive) and the GI50 (OVCAR-5) was 17.7 µM (inactive). For the same molecule, the GI50 (OVCAR-4) was 13.5 µM (inactive), the GI50 (RPMI-8226) was 4.8 µM (inactive) and the GI50 (IGROV-1) was 16.1 µM (inactive). The GI50 (OVCAR-3) was 15.1 µM (inactive), the GI50 (HOP-62) was 18.2 µM (inactive) and the GI50 (SK-MEL-28) was 17.9 µM (inactive). The GI50 (SF-295) was 14.5 µM (inactive), the GI50 (SN12C) was 16.6 µM (inactive) and the GI50 (A498) was 16.4 µM (inactive). For the same molecule, the GI50 (786-0) was 16.1 µM (inactive), the GI50 (M19-MEL) was 1.43 µM (inactive) and the GI50 (NCI-H522) was 14.1 µM (inactive). The GI50 (UACC-257) was 12.6 µM (inactive), the GI50 (SK-MEL-2) was 22.9 µM (inactive) and the GI50 (RXF 393) was 11.6 µM (inactive). The GI50 (DMS-114) was 5.81 µM (inactive) and the GI50 (LOX IMVI) was 12.1 µM (inactive).
